Source: US11535597B2, “Photoreactive ligands and uses thereof” (The Scripps Research Institute, priority 2017, dated 2022)

Tested on: proteins in HEK293T cells
Experiment: MS-based mapping of FFF probe-modified peptides (isoTOP, sites of labeling)
Type: binding, human
Outline: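 Live cells treated with fragment probes (200-250 μM) in serum-free DMEM, with or without competitor ligands. Proteomes clicked to light/heavy biotin-TEV-azide, streptavidin-enriched, trypsin- then TEV-digested; probe-modified peptides identified by LC-MS/MS with any residue allowed as modified site, isoTOP ratios quantified by CIMAGE.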

C#CCCC1(CCC(=O)Nc2ccc(C3CCNCC3)cc2)N=N1 [probe 9, 3-(3-(But-3-yn-1-yl)-3H-diazirin-3-yl)-N-(4-(piperidin-4-yl)phenyl)propanamide]
Labeled Peptide of HEXA Beta-hexosaminidase subuit alpha (Accession P06865, residues of probe-labeled peptide, family Enzymes): 489-499 | Labeled Peptide of GAA Lysosomal alpha-glucosidase (Accession P10253, residues of probe-labeled peptide, family Enzymes): 855-870 | Labeled Peptide of GLB1 Beta-galactosidase (Accession P16278, residues of probe-labeled peptide, family Enzymes): 286-299 | Labeled Peptide (HEXA Beta-hexosaminidase subunit alpha, residues of probe-modified peptide): 489-499 | Labeled Peptide (HSP90B1 Endoplasmin, residues of probe-modified peptide): 117-135 | Labeled Peptide (LGALS3BP Galectin-3-binding protein (Q08380), residues of the probe-labeled peptide): 522-541 | Labeled Peptide (MAN2B1 Lysosomal alpha-mannosidase (O00754), residues of the probe-labeled peptide): 614-638 | Labeled Peptide (MAN2B2 Epididymis specific alpha-mannosidase (Q9Y2E5), residues of the probe-labeled peptide): 642-664 | Labeled Peptide (NAGLU Alpha-N-acetylglucosaminidase (P54802), residues of the probe-labeled peptide): 566-580 | Labeled Peptide (P4HB Protein disulfide-isomerase (P07237), residues of the probe-labeled peptide): 171-195 | Labeled Peptide (P00338 LDHA L-lactate dehydrogenase A chain): 43-57 | Labeled Peptide (P06865 HEXA Beta-hexosaminidase subunit alpha): 489-499 | Labeled Peptide (P07339 CTSD Cathepsin D): 236-253 | Labeled Peptide (P14625 HSP90B1 Endoplasmin): 117-135 | Labeled Peptide (P16278 GLB1 Beta-galactosidase): 286-299 | Labeled Peptide (residues) of SMYD3 SET and MYND domain-containing protein 3 (Q9H7B4, peptide DQYCLECDCFR, PDB 5HQ8): 255-265 | Labeled Peptide (protein ATP1A1 (P05023), residues of probe-labeled peptide): 894-911 | Labeled Peptide (protein C19orf6 Membralin (Q4ZIN3), residues of probe-labeled peptide): 254-271 | Labeled Peptide (protein CCT6A T-complex protein 1 subunit zeta (P40227), residues of probe-labeled peptide): 400-424 | Labeled Peptide (protein CLN5 Ceroid-lipofuscinosis neuronal protein 5 (O75503), residues of probe-labeled peptide): 74-96 | Labeled Peptide (protein CPVL Probable serine carboxypeptidase CPVL (Q9H3G5), residues of probe-labeled peptide): 195-208 | Labeled Peptide (protein CTSD Cathepsin D, residues of probe-labeled peptide): 236-253 | Labeled Peptide (protein CTSD Cathespin D (P07339), residues of probe-labeled peptide): 236-253 | Labeled Peptide (protein DNASE2 Deoxyribonuclease-2-alpha (O00115), residues of probe-labeled peptide): 173-202 | Labeled Peptide (protein ECHDC1 Ethylmalonyl-CoA decarboxylase (Q9NTX5), residues of probe-labeled peptide): 272-283 | Labeled Peptide (protein EIF4H Eukaryotic translation initiation factor 4H (Q15056), residues of probe-labeled peptide): 97-109 | Labeled Peptide (protein FARSB Phenylalanine--tRNA ligase beta subunit, residues of probe-labeled peptide): 72-82 | Labeled Peptide (protein FARSB Phenylalanini--tRNA ligase beta subunit (Q9NSD9), residues of probe-labeled peptide): 72-82 | Labeled Peptide (protein GLB1 Beta-galactosidase, residues of probe-labeled peptide): 286-299 | Labeled Peptide (protein LDHA L-lactate dehydrogenase A chain, residues of the probe-labeled peptide): 43-57 | Labeled Peptide (protein NAGLU Alpha-N-acetylglucosaminidase, residues of the probe-labeled peptide): 566-580 | Labeled Peptide (protein P4HB Protein disulfide-isomerase, residues of the probe-labeled peptide): 171-195 | Labeled Peptide (protein P46977 STT3A Dolichyl-diphosphooligosaccharide--protein glycosy): 572-595 | Labeled Peptide (protein PCYOX1 Prenylcysteine oxidase 1 (Q9UHG3)): 292-304 | Labeled Peptide (protein PDIA4 Protein disulfide-isomerase A4 (P13667)): 486-499 | Labeled Peptide (protein PHB Prohibitin (P35232)): 220-239 | Labeled Peptide (protein Q8IXU6 SLC35F2 Solute carrier family 35 member F2): 188-221 | Labeled Peptide (protein Q8TCJ2 STT3B Dolichyl-diphosphooligosaccharide--protein glycosy): 651-674 | Labeled Peptide (protein Q9BVK6 TMED9 Transmembrane emp24 domain-containg protein 9): 49-65 | Labeled Peptide (protein Q9H7B4 SMYD3 SET and MYND domain-containing protein 3): 255-265 | Labeled Peptide (protein Q92973 TNPO1 Transportin-1): 273-298 | Labeled Peptide (protein RALA Ras-related protein Ral-A (P11233)): 28-47 | Labeled Peptide (protein SMYD3 SET and MYND domain-containing protein 3, residues of the probe-modified peptide): 255-265 | Labeled Peptide (protein TNPO1 Transportin-1, residues of the probe-modified peptide): 273-298
